For assay [1], the target named is T1, PPAR delta/gamma (Homo sapiens) (UniProt P37231+Q03181). Kind of assay: Activation of […] in human HaCaT cells assessed as induction of ANGPTL4 expression by PCR. The class given is cell-based.
Assay [2] deals with T1, PPAR delta/gamma (Homo sapiens). Kind of assay: Activation of […] in human HaCaT cells assessed as inhibition of cellular proliferation at 10 uM after 72 hrs. The class given is cell-based.

For one molecule, Activity results are on record in ChEMBL document CHEMBL1177826, “Synthesis of isosteric selenium analog of the PPARbeta/delta agonist GW501516 and comparison of biological activity” (Bioorg Med Chem Lett, 2010).

The source made the active and inactive calls. The rule behind the calls is not given here.

T1 sequence (P37231 whole entry, looked up): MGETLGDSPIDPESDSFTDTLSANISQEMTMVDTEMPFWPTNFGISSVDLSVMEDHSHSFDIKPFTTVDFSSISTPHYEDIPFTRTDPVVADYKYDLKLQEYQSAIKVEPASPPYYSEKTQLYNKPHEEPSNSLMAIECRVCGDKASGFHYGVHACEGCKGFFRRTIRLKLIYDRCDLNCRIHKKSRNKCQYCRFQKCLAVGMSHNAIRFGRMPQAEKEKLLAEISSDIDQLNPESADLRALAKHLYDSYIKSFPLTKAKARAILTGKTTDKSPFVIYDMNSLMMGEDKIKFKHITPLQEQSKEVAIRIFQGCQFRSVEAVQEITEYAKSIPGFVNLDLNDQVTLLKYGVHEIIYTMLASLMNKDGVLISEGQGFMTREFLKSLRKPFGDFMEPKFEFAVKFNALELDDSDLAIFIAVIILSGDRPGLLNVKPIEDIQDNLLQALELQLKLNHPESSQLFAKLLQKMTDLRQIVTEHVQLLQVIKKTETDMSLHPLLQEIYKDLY
T1 sequence (Q03181 whole entry, looked up): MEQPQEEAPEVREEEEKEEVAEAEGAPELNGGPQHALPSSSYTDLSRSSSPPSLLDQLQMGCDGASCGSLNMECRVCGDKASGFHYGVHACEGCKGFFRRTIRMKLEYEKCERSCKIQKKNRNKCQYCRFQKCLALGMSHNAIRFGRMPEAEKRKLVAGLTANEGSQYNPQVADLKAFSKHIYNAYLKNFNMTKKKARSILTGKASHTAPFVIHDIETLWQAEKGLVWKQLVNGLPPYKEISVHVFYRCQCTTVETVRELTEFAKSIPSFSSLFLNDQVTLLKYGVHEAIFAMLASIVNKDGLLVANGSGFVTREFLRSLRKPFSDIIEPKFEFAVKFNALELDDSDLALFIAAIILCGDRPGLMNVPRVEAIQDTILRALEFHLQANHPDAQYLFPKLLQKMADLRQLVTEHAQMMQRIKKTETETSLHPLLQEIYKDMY

Take `Cc1cc([Se]Cc2sc(-c3ccc(C(F)(F)F)cc3)nc2C)ccc1OCC(=O)O`: the result in assay [1] and in assay [2] was Active.
